The values that follow come from patent publication US20160222056A1, “SUBSTITUTED PHENYLALANINE DERIVATIVES” (BAYER PHARMA AKTIENGESELLSCHAFT, priority 2013, published 2016).

Where a name gives a salt, the structure may show the parent alone.

One assay concerns human and animal plasma. Kind of assay: Anticoagulatory activity: activated partial thromboplastin time (aPTT) in plasma. It is filed as biochemical. The settings on record: in vitro in plasma, C.K. Prest kit, 37° C. for 3 minutes; plasma species of Table B not stated. On the procedure:
The anticoagulatory activity of the test substances is determined in vitro in human and animal plasma (for example mouse, rat, rabbit, pig and dog plasma). To this end, blood is drawn off in a mixing ratio of sodium citrate/blood of 1:9 using a 0.11 molar sodium citrate solution as receiver. Immediately after the blood has been drawn off, it is mixed thoroughly and centrifuged at about 4000 g for 15 minutes. The supernatant is pipetted off.
The activated partial thromboplastin time (aPTT) is determined in the presence of varying concentrations of test substance or the corresponding solvent using a commercial test kit (C.K. Prest from Diagnostica Stago). The test compounds are incubated with the plasma and the PTT reagent (cephalin, kaolin) at 37° C. for 3 minutes. Coagulation is then started by addition of 25 mM aqueous calcium chloride, and the time when coagulation occurs is determined. The concentration of test substance which brings about a 1.5-fold extension of the aPTT is determined.

The target in the next assay is T1, human factor XIa (Homo sapiens, UniProt P03951).
T1 construct: purchased Kordia
Kind of assay: Measurement of FXIa inhibition (fluorogenic peptide substrate). The assay is classed as biochemical. Particulars: human factor XIa from Kordia, substrate Boc-Glu(OBzl)-Ala-Arg-AMC, 30 min at 22° C.; read-out: IC50 (FXIa inhibition). On the procedure:
To determine the factor XIa inhibition of the substances according to the invention, a biochemical test system is used which utilizes the reaction of a peptidic factor XIa substrate to determine the enzymatic activity of human factor XIa. Here, factor XIa cleaves from the peptic factor XIa substrate the C-terminal aminomethylcoumarin (AMC), the fluorescence of which is measured. The determinations are carried out in microtitre plates.
Test substances are dissolved in dimethyl sulphoxide and serially diluted in dimethyl sulphoxide (3000 μM to 0.0078 μM; resulting final concentrations in the test: 50 μM to 0.00013 μM). In each case 1 μl of the diluted substance solutions are placed into the wells of white microtitre plates from Greiner (384 wells). Subsequently, the following are added successively: 20 μl of assay buffer (50 mmol/1 Tris buffer pH 7.4; 100 mmol/1 sodium chloride; 5 mmol/1 calcium chloride; 0.1% bovine serum albumin) and 20 μl of factor XIa from Kordia (0.45 nM in assay buffer). After 15 min of incubation, the enzyme reaction is started by addition of 20 μl of the factor XIa substrate Boc-Glu(OBzl)-Ala-Arg-AMC dissolved in assay buffer (10 μM in assay buffer) from Bachem, the mixture is incubated at room temperature (22° C.) for 30 min and fluorescence is then measured (excitation: 360 nm, emission: 460 nm). The measured emissions of the test batches with test substance are compared to those of control batches without test substance (only dimethyl sulphoxide instead of test substance in dimethyl sulphoxide), and the IC50 values are calculated from the concentration/activity relationships.

T1 sequence (P03951 388-625 limits assumed): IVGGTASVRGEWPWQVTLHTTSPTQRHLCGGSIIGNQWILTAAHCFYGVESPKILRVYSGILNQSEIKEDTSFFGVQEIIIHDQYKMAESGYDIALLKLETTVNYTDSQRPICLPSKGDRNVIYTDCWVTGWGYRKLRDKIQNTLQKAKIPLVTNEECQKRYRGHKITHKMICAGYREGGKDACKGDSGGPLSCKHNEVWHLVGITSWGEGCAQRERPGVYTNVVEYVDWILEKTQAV
T1 sequence (P03951 19-387 partner limits assumed): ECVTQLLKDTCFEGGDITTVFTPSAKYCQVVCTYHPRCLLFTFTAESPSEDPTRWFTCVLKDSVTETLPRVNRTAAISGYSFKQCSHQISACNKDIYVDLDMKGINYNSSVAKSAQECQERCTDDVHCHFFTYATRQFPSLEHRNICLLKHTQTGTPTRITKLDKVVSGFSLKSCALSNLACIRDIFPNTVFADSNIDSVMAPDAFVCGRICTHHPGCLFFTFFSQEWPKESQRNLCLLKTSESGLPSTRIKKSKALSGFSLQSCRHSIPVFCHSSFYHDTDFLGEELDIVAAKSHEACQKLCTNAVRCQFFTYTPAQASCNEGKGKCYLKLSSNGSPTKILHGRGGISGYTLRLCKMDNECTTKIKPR

With `CCN(CC)CCNC(=O)c1ccc(-c2ccc(C[C@H](NC(=O)[C@H]3CC[C@H](CN)CC3)C(=O)Nc3ccc(-c4nn[nH]n4)cc3)cc2)c(C(F)(F)F)n1` [Example 1, N-alpha-{[trans-4-(Aminomethyl)cyclohexyl]carbonyl}-4-[6-{[2-(diethylamino)ethyl]carbamoyl}-2-(trifluoromethyl)pyridin-3-yl]-N-[4-(2H-tetrazol-5-yl)phenyl]-L-phenylalaninamide hydrochloride], in the assay with human and animal plasma, the “aPTT (concentration of test substance which brings about a 1.5-fold extension of the aPTT)” value stood at 0.1 µmol/L. The IC50 on human factor XIa worked out at 2 nM.

Regarding `Cc1nc(C(=O)NC2CCC(N(C)C)CC2)ccc1-c1ccc(C[C@H](NC(=O)[C@H]2CC[C@H](CN)CC2)C(=O)Nc2ccc(-c3nn[nH]n3)cc2)cc1` (stereo partly drawn) [Example 2, N-alpha-{[trans-4-(Aminomethyl)cyclohexyl]carbonyl}-4-(6-{[4-(dimethylamino)cyclohexyl]-carbamoyl}-2-methylpyridin-3-yl)-N-[4-(2H-tetrazol-5-yl)phenyl]-L-phenylalaninamide hydrochloride], the “aPTT (concentration of test substance which brings about a 1.5-fold extension of the aPTT)” value in the assay with human and animal plasma was 0.08 µmol/L. Moreover, the IC50 at human factor XIa was found to be 1.9 nM.

On to `CCN(CC)CCNC(=O)c1ccc(-c2ccc(C[C@H](NC(=O)[C@H]3CC[C@H](CN)CC3)C(=O)Nc3ccc(-c4nn[nH]n4)cc3)cc2)c(C)n1` [Example 3, N-alpha-{[trans-4-(Aminomethyl)cyclohexyl]carbonyl}-4-(6-{[2-(diethylamino)ethyl]carbamoyl}-2-methylpyridin-3-yl)-N-[4-(2H-tetrazol-5-yl)phenyl]-L-phenylalaninamide hydrochloride], for which the “aPTT (concentration of test substance which brings about a 1.5-fold extension of the aPTT)” value in the assay with human and animal plasma is 0.16 µmol/L. The IC50 on human factor XIa is 5.6 nM.

Turning to `Cc1nc(C(=O)N[C@H]2CCCNC2=O)ccc1-c1ccc(C[C@H](NC(=O)[C@H]2CC[C@H](CN)CC2)C(=O)Nc2ccc(-c3nn[nH]n3)cc2)cc1` [Example 4, N-alpha-{[trans-4-(Aminomethyl)cyclohexyl]carbonyl}-4-(2-methyl-6-{[(3S)-2-oxopiperidin-3-yl]carbamoyl}pyridin-3-yl)-N-[4-(2H-tetrazol-5-yl)phenyl]-L-phenylalaninamide hydrochloride], the “aPTT (concentration of test substance which brings about a 1.5-fold extension of the aPTT)” value in the assay on human and animal plasma came out at 0.2 µmol/L. Moreover, the IC50 on human factor XIa stood at 1.3 nM. With `Cc1nc(C(=O)NC2CCN(C)CC2)ccc1-c1ccc(C[C@H](NC(=O)[C@H]2CC[C@H](CN)CC2)C(=O)Nc2ccc(-c3nnn[nH]3)cc2)cc1` [Example 30, N-alpha-{[trans-4-(Aminomethyl)cyclohexyl]carbonyl}-4{-2-methyl-6-[(1-methylpiperidin-4-yl)carbamoyl]pyridin-3-yl}-N-[4-(1H-tetrazol-5-yl)phenyl]-L-phenylalaninamide hydrochloride], the IC50 on human factor XIa came out at 5.5 nM.

In the case of `Cc1nc(C(=O)N[C@H]2CC[C@H](N)CC2)ccc1-c1ccc(C[C@H](NC(=O)[C@H]2CC[C@H](CN)CC2)C(=O)Nc2ccc(-c3nn[nH]n3)cc2)cc1` [Example 31, 4-{6-[(trans-4-Aminocyclohexyl)carbamoyl]-2-methylpyridin-3-yl}-N-alpha-{[trans-4-(aminomethyl)cyclohexyl]carbonyl}-N-[4-(2H-tetrazol-5-yl)phenyl]-L-phenylalaninamide hydrochloride], the IC50 at human factor XIa is 1.9 nM. On to `Cc1cc(C(=O)N2CCNC(=O)C2)ncc1-c1ccc(C[C@H](NC(=O)[C@H]2CC[C@H](CN)CC2)C(=O)Nc2ccc(-c3nnn[nH]3)cc2)cc1` [Example 32, N-alpha-{[trans-4-(Aminomethyl)cyclohexyl]carbonyl}-4-{4-methyl-6-[(3-oxopiperazin-1-yl)carbonyl]pyridin-3-yl}-N-[4-(1H-tetrazol-5-yl)phenyl]-L-phenylalaninamide hydrochloride], for which the IC50 at human factor XIa stood at 1.8 nM.
